# Source: patent publication US20130023504A1, “Modulation of Prostaglandin/Cyclooxygenase Metabolic Pathways” (HUNTER-FLEMING LIMITED, priority 2006, published 2013)
# Marks after values point to notes of the source that are not given here.
# Experiments:
# [1] = tested on: human peripheral blood mononuclear cells; assay: Prostaglandin (PGD2, PGE2, 15d-PGJ2) production by human peripheral blood mononuclear cells with/without TNF-α, EIA (Example 2); type: cell-based
# Protocol: Mononuclear cells (monocytes and lymphocytes) were prepared by subjecting 48 ml of whole human blood to Ficoll/hypaque density centrifugation. Blood was layered on top of the ficoll (density=1.077 g/ml) and centrifuged at 400 g for 1 hour (22° C.), after which cells at the interphase were removed by pipette and transferred to fresh tubes. Tubes were filled with RPMI 1640 culture medium (2 volumes) thoroughly mixed and then centrifuged at 400 g for 5 minutes (22° C.). The supernatant was discarded and the cell pellet was re-suspended in RPMI 1640 culture medium and the volume adjusted to give the appropriate number of cells per incubation as indicated in the results section below. Cells were incubated in sterile plastic 1.5 ml tubes in a final volume of 1 ml RPMI 1640 medium for 18 hours at 37° C., 5% CO2 in air and 100% humidity. 7β-OH-EPIA was then added and cells incubated for a further hour at 37° C. before adding recombinant human Tumour Necrosis Factor-α (TNF-α) and incubations continued for a further 3 hours. 7β-OH-EPIA was prepared in dimethyl sulphoxide (DMSO), all remaining agents were prepared in RPMI 1640 medium. The requisite controls contained either medium or the same concentration of DMSO which was always <0.1% v/v. Incubations were terminated by centrifuging tubes at 11,000 g for 30 seconds at 22° C. and transferring the supernatants to fresh 1.5 ml tubes. Samples were then either processed immediately for PGD2 estimation as described below or stored at −20° C. prior to PGE2 or 15d-PGJ2 measurement.
# Prostaglandin production by human monocytic cells in response to 7β-OH-EPIA in either the absence or presence of stimulation with TNF-α was determined by measuring the extracellular levels of eicosanoid using commercially available EIA kits.
# PGD2 cannot be assayed directly from cell supernatants because it is chemically unstable and rapidly degrades to a number of J series prostaglandins including, PGJ2, Δ^12-PGJ2, and 15-deoxy-Δ^12,14-PGJ2. In order to circumvent this problem, unstable PGD2 was chemically treated to give a stable derivative, in this case prostaglandin D2-Methoxamine (PGD2-MOX) which was be stored for subsequent analysis. Immediately following termination of incubations, 100 μl of sample supernatant was added to 1.5 ml tubes containing 100 μl of a Methyl Oximating Reagent (methoxy)amine hydrochloride (MOX-HCl) and sodium acetate dissolved in a 10:90 v/v, ethanol/water solution. Tubes were then placed in a water bath and the reaction allowed to proceed for 30 minutes at 60° C. At the end of this period samples were stored at −80° C. Levels of PGD2 were subsequently estimated using Cayman Chemical's Prostaglandin D2-MOX EIA Kit (Cat. No. 512011).
# Extracellular levels of PGE2 were estimated using R & D Systems' Parameter PGE2 EIA Kit according to the manufacturer's instructions for the high sensitivity protocol.
# Extracellular levels of 15d-PGJ2 were estimated using Assay Designs' Correlate-EIA Prostaglandin 15-deoxy-Δ^12,14-prostaglandin J2 EIA Kit (Cat. No. 900-023) according to the manufacturer's instructions.
# Results are expressed as the mean±s.d. for n=3 incubations. An unpaired Students t-Test was used to determine the probability (P) that two sets of data were different from each other. The difference was considered to be significant when P<0.05. Statistical calculations were carried out on an Apple Macintosh computer using the software package Statview, from Abacus Concepts Inc.
# [2] = tested on: collagen-induced arthritis; assay: Collagen-induced arthritis (CII/CFA), histopathology, clinical score, knee homogenate prostaglandins; type: in vivo, mouse
smiles,measurement,setting,value
"CC12CCC3C(C1CCC2=O)[C@@H](O)C[C@H]1C[C@@H](O)CCC31C (stereo partly drawn) [Compound 7β-OH-EPIA, 7β-hydroxy-EPIAndrosterone]",effect on TNF-α-induced PGD2 biosynthesis,"[1]; 0.1 nM-100 nM, TNF-α (0.5 μg/ml)",no effect
same,increase in 15d-PGJ2 production,"[1]; 0.1 nM-1000 nM, in the presence of TNF-α, vs respective control",2-2.5 fold
same,increase in 15d-PGJ2 levels,"[1]; 0.1 nM-1000 nM, without TNF-α, vs DMSO controls",9-12 fold
same,15d-PGJ2 levels in cell supernatants,"[1]; 0.1 nM, 4 hours, without TNF-α",506 ± 101 pg/mL
same,15d-PGJ2 levels in cell supernatants,"[1]; 0.1 nM, TNF-α (10 ng/ml)",348 ± 48 pg/mL
same,PGE2 levels compared to DMSO controls,"[1]; 1 nM-1000 nM, 4 hours, without TNF-α",not statistically significantly different
same,15d-PGJ2 levels in cell supernatants,"[1]; 1 nM, 4 hours, without TNF-α",539 ± 51 pg/mL
same,15d-PGJ2 levels in cell supernatants,"[1]; 1 nM, TNF-α (10 ng/ml)",334 ± 24 pg/mL
same,PGE2 levels in cell supernatants,"[1]; 1 nM, TNF-α (10 ng/ml)",75 ± 25 pg/mL
same,15d-PGJ2 levels in cell supernatants,"[1]; 10 nM, 4 hours, without TNF-α",520 ± 45 pg/mL
same,15d-PGJ2 levels in cell supernatants,"[1]; 10 nM, TNF-α (10 ng/ml)",356 ± 85 pg/mL
same,PGE2 levels in cell supernatants,"[1]; 10 nM, TNF-α (10 ng/ml)",82 ± 23 pg/mL
same,15d-PGJ2 levels in cell supernatants,"[1]; 100 nM, 4 hours, without TNF-α",450 ± 133 pg/mL
same,PGD2 levels in cell supernatants,"[1]; 100 nM, 4 hours, without TNF-α",102 ± 24 pg/mL
same,15d-PGJ2 levels in cell supernatants,"[1]; 100 nM, TNF-α (10 ng/ml)",406 ± 30 pg/mL
same,PGE2 levels in cell supernatants,"[1]; 100 nM, TNF-α (10 ng/ml)",74 ± 12 pg/mL
same,15d-PGJ2 levels in cell supernatants,"[1]; 1000 nM, 4 hours, without TNF-α",590 ± 84 pg/mL
same,15d-PGJ2 levels in cell supernatants,"[1]; 1000 nM, TNF-α (10 ng/ml)",318 ± 100 pg/mL
same,effect on TNF-α-induced PGE2 production,"[1]; 1000 nM, TNF-α (10 ng/ml)",no effect
same,PGD2 levels in cell supernatants,"[1]; 1000 nM, TNF-α (0.5 μg/ml)",164 ± 31 pg/mL
same,15d-PGJ2 in knee homogenates,"[2]; 0.1 μg/kg day, D 20-50, Day 50",78.96 ± 22.18 pg/mL
same,Clinical Score (joint swelling),"[2]; 0.1 μg/kg day, D 20-50, Day 50",3.10 ± 2.96
same,PGE2/15d-PGJ2,"[2]; 0.1 μg/kg day, D 20-50, Day 50",1.21
same,PGE2 in knee homogenates,"[2]; 0.1 μg/kg day, D 20-50, Day 50",95.61 ± 34.65 pg/mL
same,Histopathology Score (both paws on Day 50),"[2]; 1.0 μg/kg s.c. daily, treatment from Day 20-50",0.60
same,animals completely clear of histopathological change in the paw joints,"[2]; 10.0 μg/kg, treatment day 0 to day 30",9 out of 10
same,Histopathology Score (both paws on Day 50),"[2]; 10.0 μg/kg, treatment from Day 0-30",0.2*
same,Histopathology Score (both paws on Day 50),"[2]; 10.0 μg/kg, treatment from Day 20-50",0.44
same,Histopathology Score (both paws on Day 50),"[2]; 100.0 μg/kg, treatment from Day 20-50",0.85
